The text below walks through data of ChEMBL document CHEMBL5291721, “A preclinical secondary pharmacology resource illuminates target-adverse drug reaction associations of marketed drugs” (Nat Commun, 2023).

Structures are written as SMILES.

In assay [1] the target is Growth hormone secretagogue receptor type 1 (Homo sapiens, UniProt Q92847).
Assay [2] deals with cGMP-inhibited 3',5'-cyclic phosphodiesterase 3A (Homo sapiens, UniProt Q14432). The format is functional.
Assay [3] addresses T1, Alpha-2A adrenergic receptor (Homo sapiens, UniProt P08913).
T1 sequence (P08913 whole entry): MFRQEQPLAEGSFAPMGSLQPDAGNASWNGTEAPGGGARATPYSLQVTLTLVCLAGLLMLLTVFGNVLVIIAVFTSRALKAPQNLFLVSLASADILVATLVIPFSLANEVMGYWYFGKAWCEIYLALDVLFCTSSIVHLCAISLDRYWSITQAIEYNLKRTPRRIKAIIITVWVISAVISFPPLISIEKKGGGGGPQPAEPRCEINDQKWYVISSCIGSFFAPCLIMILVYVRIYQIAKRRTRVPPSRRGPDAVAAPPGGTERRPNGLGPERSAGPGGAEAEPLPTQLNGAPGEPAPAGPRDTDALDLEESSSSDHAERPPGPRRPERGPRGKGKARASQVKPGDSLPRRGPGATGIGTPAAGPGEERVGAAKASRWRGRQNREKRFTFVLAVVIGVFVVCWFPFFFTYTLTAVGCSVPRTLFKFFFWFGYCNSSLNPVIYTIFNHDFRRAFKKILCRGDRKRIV
The format is functional, cell-based.

Assay [4] has as its target T2, Cholecystokinin receptor type A (Homo sapiens, UniProt P32238).
T2 sequence (P32238 whole entry): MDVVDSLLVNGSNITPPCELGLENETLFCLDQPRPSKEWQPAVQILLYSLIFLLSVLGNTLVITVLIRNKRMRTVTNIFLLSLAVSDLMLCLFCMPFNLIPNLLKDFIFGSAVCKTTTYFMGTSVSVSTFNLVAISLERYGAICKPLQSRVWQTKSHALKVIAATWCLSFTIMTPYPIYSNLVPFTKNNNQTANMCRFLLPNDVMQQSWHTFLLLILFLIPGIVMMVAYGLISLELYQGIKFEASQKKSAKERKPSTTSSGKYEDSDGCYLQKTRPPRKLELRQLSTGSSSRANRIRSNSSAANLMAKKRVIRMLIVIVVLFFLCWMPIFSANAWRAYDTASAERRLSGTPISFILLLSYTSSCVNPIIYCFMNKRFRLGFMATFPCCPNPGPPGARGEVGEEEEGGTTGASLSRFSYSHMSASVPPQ

The next assay concerns the target D(3) dopamine receptor (Homo sapiens, UniProt P35462).
A further assay has as its target Motilin receptor (Homo sapiens, UniProt O43193).
The target of assay [5] is 5-hydroxytryptamine receptor 2B (Homo sapiens, UniProt P41595). It counts as functional, cell-based.
5-hydroxytryptamine receptor 2B, sequence (P41595 whole entry): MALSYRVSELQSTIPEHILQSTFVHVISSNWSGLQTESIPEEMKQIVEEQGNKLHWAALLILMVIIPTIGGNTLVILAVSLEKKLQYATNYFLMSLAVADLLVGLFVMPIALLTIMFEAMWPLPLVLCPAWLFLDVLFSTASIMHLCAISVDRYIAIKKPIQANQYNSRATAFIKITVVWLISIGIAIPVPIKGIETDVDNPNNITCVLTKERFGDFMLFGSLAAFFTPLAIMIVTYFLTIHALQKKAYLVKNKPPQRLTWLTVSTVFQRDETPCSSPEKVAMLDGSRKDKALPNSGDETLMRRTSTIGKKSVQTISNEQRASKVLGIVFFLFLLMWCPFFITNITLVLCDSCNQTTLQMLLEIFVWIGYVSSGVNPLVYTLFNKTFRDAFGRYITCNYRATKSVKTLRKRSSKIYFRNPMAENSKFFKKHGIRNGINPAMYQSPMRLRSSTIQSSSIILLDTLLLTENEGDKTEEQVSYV
For the next assay, the target named is T3, Adenosine receptor A3 (Homo sapiens, UniProt P0DMS8).
T3 sequence (P0DMS8 whole entry): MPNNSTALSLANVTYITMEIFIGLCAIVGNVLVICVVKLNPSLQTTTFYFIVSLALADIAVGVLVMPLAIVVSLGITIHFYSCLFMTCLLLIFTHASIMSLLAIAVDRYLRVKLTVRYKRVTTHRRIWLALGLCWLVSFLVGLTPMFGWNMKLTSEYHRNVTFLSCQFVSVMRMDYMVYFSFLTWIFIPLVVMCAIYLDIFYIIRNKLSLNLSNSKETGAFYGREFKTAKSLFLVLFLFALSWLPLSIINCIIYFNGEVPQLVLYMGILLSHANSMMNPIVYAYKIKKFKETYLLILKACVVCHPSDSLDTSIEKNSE

Assay [6] concerns the target T4, Prostaglandin G/H synthase 1 (Rattus norvegicus, UniProt Q63921).
T4 sequence (Q63921 whole entry): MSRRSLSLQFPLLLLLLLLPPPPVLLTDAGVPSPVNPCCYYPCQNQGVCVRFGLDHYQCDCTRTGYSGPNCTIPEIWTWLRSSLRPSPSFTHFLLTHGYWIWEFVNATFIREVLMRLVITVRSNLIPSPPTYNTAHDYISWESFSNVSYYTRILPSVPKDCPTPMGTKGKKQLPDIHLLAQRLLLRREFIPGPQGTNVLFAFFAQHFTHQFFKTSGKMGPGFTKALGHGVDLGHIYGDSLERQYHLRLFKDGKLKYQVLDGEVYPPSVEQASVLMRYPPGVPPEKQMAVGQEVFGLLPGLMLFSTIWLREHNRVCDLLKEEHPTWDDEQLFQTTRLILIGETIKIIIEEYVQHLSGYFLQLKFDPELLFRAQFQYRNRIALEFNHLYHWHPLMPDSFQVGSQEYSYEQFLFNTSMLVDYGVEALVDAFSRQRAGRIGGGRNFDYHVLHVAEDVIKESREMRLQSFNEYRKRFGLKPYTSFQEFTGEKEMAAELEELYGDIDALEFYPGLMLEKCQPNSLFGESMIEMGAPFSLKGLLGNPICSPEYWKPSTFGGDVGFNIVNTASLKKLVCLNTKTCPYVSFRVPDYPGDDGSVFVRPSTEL
The format is functional.

Assay [7] has as its target T5, Amine oxidase [flavin-containing] A (Homo sapiens, UniProt P21397).
T5 sequence (P21397 whole entry): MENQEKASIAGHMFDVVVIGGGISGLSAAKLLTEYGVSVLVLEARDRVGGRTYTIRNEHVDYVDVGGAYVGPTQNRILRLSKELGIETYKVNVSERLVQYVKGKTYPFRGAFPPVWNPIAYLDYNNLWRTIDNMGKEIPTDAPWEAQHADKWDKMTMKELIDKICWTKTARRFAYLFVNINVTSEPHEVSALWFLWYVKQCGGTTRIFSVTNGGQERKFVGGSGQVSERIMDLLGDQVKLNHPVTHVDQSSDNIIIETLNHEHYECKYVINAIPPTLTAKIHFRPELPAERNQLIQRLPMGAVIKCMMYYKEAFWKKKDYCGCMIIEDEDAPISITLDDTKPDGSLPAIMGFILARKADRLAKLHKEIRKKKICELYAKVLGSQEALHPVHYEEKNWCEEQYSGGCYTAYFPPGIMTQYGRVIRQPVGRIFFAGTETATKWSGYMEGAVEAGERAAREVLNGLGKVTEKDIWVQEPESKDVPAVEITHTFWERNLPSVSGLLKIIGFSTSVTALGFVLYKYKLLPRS
It counts as functional.
Further: assay procedure not described here.

D(3) dopamine receptor, sequence (P35462 whole entry): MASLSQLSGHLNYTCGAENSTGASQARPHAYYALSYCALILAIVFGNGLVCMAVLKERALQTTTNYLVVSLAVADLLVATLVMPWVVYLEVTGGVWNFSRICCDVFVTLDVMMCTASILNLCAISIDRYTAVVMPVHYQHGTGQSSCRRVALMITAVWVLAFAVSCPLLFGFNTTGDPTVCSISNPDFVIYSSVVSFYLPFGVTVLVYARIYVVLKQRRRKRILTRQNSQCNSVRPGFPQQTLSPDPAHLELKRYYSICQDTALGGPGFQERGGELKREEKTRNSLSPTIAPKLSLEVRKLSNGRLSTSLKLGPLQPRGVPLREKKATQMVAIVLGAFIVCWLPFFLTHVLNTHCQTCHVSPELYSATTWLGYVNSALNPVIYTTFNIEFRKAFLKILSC
cGMP-inhibited 3',5'-cyclic phosphodiesterase 3A, sequence (Q14432 whole entry): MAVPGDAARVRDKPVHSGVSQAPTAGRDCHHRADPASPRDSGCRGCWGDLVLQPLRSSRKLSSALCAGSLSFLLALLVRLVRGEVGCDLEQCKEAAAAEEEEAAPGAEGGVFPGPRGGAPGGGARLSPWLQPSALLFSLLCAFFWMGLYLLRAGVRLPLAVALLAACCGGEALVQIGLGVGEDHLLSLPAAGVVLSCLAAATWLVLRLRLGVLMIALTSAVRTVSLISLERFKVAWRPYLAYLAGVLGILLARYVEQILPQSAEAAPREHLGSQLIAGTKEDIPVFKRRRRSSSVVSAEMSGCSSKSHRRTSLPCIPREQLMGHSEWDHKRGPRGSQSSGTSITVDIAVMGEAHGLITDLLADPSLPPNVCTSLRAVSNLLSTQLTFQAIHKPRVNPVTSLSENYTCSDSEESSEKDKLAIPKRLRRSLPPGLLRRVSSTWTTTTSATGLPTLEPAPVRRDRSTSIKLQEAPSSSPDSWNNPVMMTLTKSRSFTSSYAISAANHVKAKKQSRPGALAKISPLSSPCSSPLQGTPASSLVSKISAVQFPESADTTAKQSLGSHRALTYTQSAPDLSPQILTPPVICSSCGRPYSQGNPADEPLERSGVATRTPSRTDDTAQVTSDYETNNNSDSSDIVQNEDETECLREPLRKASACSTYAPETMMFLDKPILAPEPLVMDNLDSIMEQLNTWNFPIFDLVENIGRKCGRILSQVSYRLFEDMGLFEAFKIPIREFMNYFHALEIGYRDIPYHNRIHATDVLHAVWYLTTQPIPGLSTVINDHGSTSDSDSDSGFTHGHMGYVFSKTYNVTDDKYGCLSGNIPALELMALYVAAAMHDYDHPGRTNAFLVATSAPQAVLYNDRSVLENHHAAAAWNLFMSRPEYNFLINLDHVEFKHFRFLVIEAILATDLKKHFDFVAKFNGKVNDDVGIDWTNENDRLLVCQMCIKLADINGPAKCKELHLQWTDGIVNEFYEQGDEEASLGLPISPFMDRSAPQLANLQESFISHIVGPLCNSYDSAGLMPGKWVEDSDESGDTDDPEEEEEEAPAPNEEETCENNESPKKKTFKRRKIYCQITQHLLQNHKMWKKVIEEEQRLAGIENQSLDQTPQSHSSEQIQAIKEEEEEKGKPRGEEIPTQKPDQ
Growth hormone secretagogue receptor type 1, sequence (Q92847 whole entry): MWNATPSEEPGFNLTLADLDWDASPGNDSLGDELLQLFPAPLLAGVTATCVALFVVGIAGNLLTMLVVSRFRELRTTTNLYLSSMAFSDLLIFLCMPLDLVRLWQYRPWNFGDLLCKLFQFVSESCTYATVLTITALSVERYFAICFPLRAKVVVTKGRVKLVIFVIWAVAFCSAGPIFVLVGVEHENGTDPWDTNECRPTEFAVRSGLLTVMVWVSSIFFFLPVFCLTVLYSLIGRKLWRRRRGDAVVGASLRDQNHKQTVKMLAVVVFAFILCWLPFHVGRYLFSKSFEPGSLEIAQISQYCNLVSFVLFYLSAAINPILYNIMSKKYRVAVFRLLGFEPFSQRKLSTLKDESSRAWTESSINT
Motilin receptor, sequence (O43193 whole entry): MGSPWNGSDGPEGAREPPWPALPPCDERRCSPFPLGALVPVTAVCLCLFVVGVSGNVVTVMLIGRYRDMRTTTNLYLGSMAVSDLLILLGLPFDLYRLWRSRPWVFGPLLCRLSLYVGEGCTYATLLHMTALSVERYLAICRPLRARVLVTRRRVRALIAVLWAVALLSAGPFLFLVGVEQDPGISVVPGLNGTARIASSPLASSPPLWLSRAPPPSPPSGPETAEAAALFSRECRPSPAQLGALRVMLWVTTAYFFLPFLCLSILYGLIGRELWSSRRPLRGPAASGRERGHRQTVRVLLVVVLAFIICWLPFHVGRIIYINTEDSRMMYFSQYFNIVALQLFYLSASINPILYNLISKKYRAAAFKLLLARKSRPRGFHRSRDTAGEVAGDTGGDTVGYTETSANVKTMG

One may read the AC50 as the concentration giving half of the maximal activity seen. Lower therefore signals greater potency. For the compound `CCOC(=O)[C@H](CCc1ccccc1)N[C@@H](C)C(=O)N1Cc2ccccc2C[C@H]1C(=O)O`, the AC50 in [1] is greater than 30 µM; in assay [2] it was greater than 10 µM; in assay [3], greater than 10 µM; in assay [4], greater than 30 µM; on D(3) dopamine receptor, greater than 10 µM; at Motilin receptor, greater than 10 µM. In addition, the AC50 in [5] is greater than 10 µM; on Adenosine receptor A3, greater than 30 µM; in assay [6], greater than 30 µM; in assay [7], greater than 10 µM.

Turning to `CCC[C@@]1(CCc2ccccc2)CC(O)=C([C@H](CC)c2cccc(NS(=O)(=O)c3ccc(C(F)(F)F)cn3)c2)C(=O)O1`, the AC50 in [1] was greater than 30 µM; in assay [2], greater than 30 µM; in assay [3] it was 8.6 µM; in [4], 27 µM; on D(3) dopamine receptor it was greater than 30 µM; at Motilin receptor, 27 µM. The AC50 in assay [5] is greater than 30 µM; at Adenosine receptor A3, 6.4 µM; in [6], 5.8 µM; in assay [7], greater than 30 µM.

For `C=CC1=C(C(=O)O)N2C(=O)[C@@H](NC(=O)/C(=N\O)c3csc(N)n3)[C@H]2SC1`, the AC50 in assay [1] is greater than 30 µM; in assay [2], greater than 30 µM; in assay [3] it was greater than 10 µM; in [4] it was greater than 30 µM; at D(3) dopamine receptor, greater than 30 µM; on Motilin receptor, greater than 10 µM. In addition, the AC50 in [5] is greater than 10 µM; at Adenosine receptor A3 it was greater than 30 µM; in [6], greater than 30 µM; in assay [7], greater than 10 µM.

`CC#CC(=O)N1CCC[C@H]1c1nc(-c2ccc(C(=O)Nc3ccccn3)cc2)c2c(N)nccn12` [ACALABRUTINIB]: in assay [6], the AC50 is greater than 30 µM.

`CN(C)CCC=C1c2ccccc2CCc2ccccc21` [AMITRIPTYLINE]: the AC50 in [1] was greater than 30 µM; in assay [2], greater than 30 µM; in assay [3], 9.1 µM; in [4] it was greater than 30 µM; on D(3) dopamine receptor it was 0.44 µM; on Motilin receptor it was greater than 30 µM. For the same compound, the concentration at half-maximal activity (AC50) was 14.1 µM on Adenosine receptor A3, greater than 30 µM in assay [6] and greater than 10 µM in assay [7].

On to `CC(=O)Oc1ccccc1C(=O)O` [ASPIRIN], for which the AC50 in assay [1] is greater than 30 µM; in assay [2], greater than 30 µM; in assay [3], greater than 10 µM; in [4] it was greater than 30 µM; on D(3) dopamine receptor, greater than 30 µM; at Motilin receptor, greater than 10 µM. The AC50 in [5] was greater than 10 µM; on Adenosine receptor A3 it was greater than 30 µM; in [7], greater than 30 µM.

Turning to `CC(C)NCC(O)COc1ccc(CC(N)=O)cc1` (centres undefined) [ATENOLOL], the AC50 (in assay [1]; in assay [2]; in assay [3]; in assay [4]; on D(3) dopamine receptor; on Motilin receptor) was greater than 30 µM each time. Further, the AC50 (on Adenosine receptor A3; in assay [6]; in assay [7]) was greater than 30 µM each time.

Take `O=C(Cc1cccs1)N[C@@H]1C(=O)N2C(C(=O)[O-])=C(C[n+]3ccccc3)CS[C@H]12` [CEPHALORIDINE]: the AC50 (in [2]; in assay [3]; at D(3) dopamine receptor; in assay [5]; in assay [7]) was greater than 30 µM throughout.

As for `CN(C)CCCC1(c2ccc(F)cc2)OCc2cc(C#N)ccc21` (centres undefined) [CITALOPRAM], the AC50 was greater than 30 µM in [1]; greater than 30 µM in assay [2]; greater than 10 µM in assay [3]; greater than 30 µM in assay [4]; greater than 10 µM on Motilin receptor; greater than 30 µM in [5]. The results for the AC50 (at Adenosine receptor A3; in [6]; in assay [7]) were greater than 30 µM, greater than 30 µM and greater than 10 µM, respectively.

`O=c1[nH]cc(F)c(=O)[nH]1` [FLUOROURACIL]: the AC50 (in [1]; in [4]; at Motilin receptor; at Adenosine receptor A3; in assay [6]) was greater than 30 µM in each case.

In the case of `CCOC(=O)Nc1ccc(NCc2ccc(F)cc2)nc1N` [FLUPIRTINE], the AC50 was greater than 30 µM in [1]; greater than 30 µM in [2]; 23 µM in assay [3]; greater than 30 µM in assay [4]; greater than 30 µM at D(3) dopamine receptor; greater than 30 µM on Motilin receptor. The values for the AC50 (in assay [5]; on Adenosine receptor A3; in [7]) were greater than 30 µM, 21 µM and greater than 30 µM, respectively.

On to `CC(=O)NC[C@H]1CN(c2ccc(N3CCOCC3)c(F)c2)C(=O)O1` [LINEZOLID], for which the AC50 (in assay [1]; in [2]; in assay [3]; at D(3) dopamine receptor; at Adenosine receptor A3; in [6]) was greater than 30 µM each time. For the same compound, the half-maximal activity concentration (AC50) in assay [7] was greater than 30 µM.

Consider `O=C1[C@@H]2[C@H]3CC[C@H](C3)[C@@H]2C(=O)N1C[C@@H]1CCCC[C@H]1CN1CCN(c2nsc3ccccc23)CC1` [LURASIDONE], for which the AC50 in assay [1] was greater than 30 µM; in assay [2], greater than 30 µM; at D(3) dopamine receptor, 0.43 µM; at Motilin receptor, greater than 30 µM; in assay [5], greater than 30 µM; on Adenosine receptor A3, 9.9 µM. In addition, the AC50 in assay [6] and in assay [7] was greater than 30 µM throughout.

As to `CS(=O)(=O)Nc1ccc([N+](=O)[O-])cc1Oc1ccccc1` [NIMESULIDE], the AC50 is 30 µM in [1]; greater than 30 µM in assay [2]; greater than 30 µM in [3]; 6.2 µM in assay [4]; greater than 30 µM at D(3) dopamine receptor; 27 µM at Motilin receptor. The AC50 in [5], in assay [6] and in [7] was greater than 30 µM in each case.

With `C#CCN(C)Cc1ccccc1` [PARGYLINE], the AC50 in [2], in assay [3] and in assay [5] was greater than 30 µM throughout.

Consider `Cc1ccc(C(C)C)c(O)c1` [THYMOL], for which the activity in assay [6] was half-maximal at 120 µM (AC50).
